Assay results published in patent US20260174786A1, “A NITROGEN-CONTAINING SPIROCYCLIC COMPOUND, PHARMACEUTICAL COMPOSITION AND USE THEREOF” (Prime Gene Therapeutics Co., Ltd., priority 2022, published 2026).

Target: T1, hTRPV3 (Homo sapiens, UniProt Q8NET8)
T1 construct: expressed in transfected cells; host or cells: HEK-293
T1 sequence (Q8NET8 1-790): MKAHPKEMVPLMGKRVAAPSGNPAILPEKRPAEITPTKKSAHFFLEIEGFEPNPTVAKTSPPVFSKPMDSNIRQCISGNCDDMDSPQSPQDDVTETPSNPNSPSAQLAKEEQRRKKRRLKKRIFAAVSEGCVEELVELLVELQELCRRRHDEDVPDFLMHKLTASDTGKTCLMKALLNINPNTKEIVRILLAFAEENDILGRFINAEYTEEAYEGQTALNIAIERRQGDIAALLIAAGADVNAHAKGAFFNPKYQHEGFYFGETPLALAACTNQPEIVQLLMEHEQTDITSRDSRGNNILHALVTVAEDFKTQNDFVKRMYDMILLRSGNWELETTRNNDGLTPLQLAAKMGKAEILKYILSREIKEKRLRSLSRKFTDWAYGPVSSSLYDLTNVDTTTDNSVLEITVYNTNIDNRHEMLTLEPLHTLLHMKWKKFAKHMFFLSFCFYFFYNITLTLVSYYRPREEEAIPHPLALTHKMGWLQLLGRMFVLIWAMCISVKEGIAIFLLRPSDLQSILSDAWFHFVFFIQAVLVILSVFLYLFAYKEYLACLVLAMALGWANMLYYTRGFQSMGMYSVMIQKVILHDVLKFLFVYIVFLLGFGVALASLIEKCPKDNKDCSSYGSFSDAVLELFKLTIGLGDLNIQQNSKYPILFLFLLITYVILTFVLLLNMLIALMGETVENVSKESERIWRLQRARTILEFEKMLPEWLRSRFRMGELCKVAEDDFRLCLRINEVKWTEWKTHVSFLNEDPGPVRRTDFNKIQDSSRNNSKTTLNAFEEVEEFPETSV
Experiment: Whole cell patch clamp inhibition rate test on HEK-293 cells instantaneously expressing TRPV3
Format: cell-based
Conditions: HEK293; hTRPV3, single concentration 0.3 μM
Procedure: In this study, HEK-293 cells instantaneously expressing TRPV3 were used for experimental detection.
The operation steps are as follows:
The cells were cultured in DMEM medium containing 10% fetal bovine serum at a temperature of 37° C. and a carbon dioxide concentration of 5%.
Day 1: Cells were inoculated into a 6-well plate with 5×10^5 cells per well.
Day 2: Transfection was performed using Lipofectamine 3000 transfection reagent, with a plasmid to transfection reagent ratio of 1 μg: 2 μL. The total amount of plasmid used per well was 3 μg. Specifically, two sterile centrifuge tubes were taken and 100 μL Opti-MEM was added to each tube. 6 μL Lipofectamine 3000 was added to one tube and mixed well; and 3 μg plasmid was added to another tube and mixed well, and then 6 μL P3000 was added and mixed well; Subsequently, the diluted plasmid DNA was added to diluted Lipofectamine 3000 and incubated at room temperature for 10-15 min. DNA liposome complex was dropped into the cells, shaked gently and mixed well, and then cultured in an incubator. The liquid was changed after 4 to 6 h.
Day 3: The cells were digested and seeded into 24 well plates with pre-placed cover slides, with 8×10^3 cells per well.
Day 4: Patch clamp testing was performed.
The voltage stimulation protocol for recording TRPV3 current using whole cell patch clamp is as follows: after forming a whole cell seal, a cell membrane voltage clamp was set at −80 mV. Firstly, a membrane potential was recorded at 0 mV, and then a voltage was command to start from −100 mV, to depolarize in the form of Ramp to 100 mV within 100 ms, and finally restore to 0 mV. Data collection was repeated every 5 seconds to observe the inhibitory effect of pharmaceutical on peak current. Experimental data was collected by EPC 10 amplifier (HEKA) and stored in PatchMaster (HEKA) software.
A microelectrode puller was used to pull the capillary glass tube into a recording electrode. The electrode filled with intracellular fluid was inserted into a microelectrode holder, and a microelectrode manipulator was operated under an inverted microscope to immerse the electrode in extracellular fluid and an electrode resistance (Rpip) was recorded. The electrode was brought into contact with the cell surface and a negative pressure suction was applied to form a high resistance seal (GΩ). At this point, a fast capacitance compensation was performed, and negative pressure was continued to apply in order to break the cell membrane, so that a whole cell recording mode was formed. Then, a slow capacitance compensation was performed and experimental parameters such as film capacitance (Cm) and series resistance (Rs) were recorded. No leakage compensation was provided.
When the TRPV3 current recorded by the whole cell had stabilized, administration was started. Each pharmaceutical concentration acted for 5 minutes (or until the current stabilized) before detecting the next concentration. A plurality of concentrations was tested for each test compound. A cover glass covered with cells was placed in a recording bath under an inverted microscope. A blank control extracellular solution and a working fluid for the compound to be tested sequentially flowed through the recording bath from low concentration to high concentration using gravity perfusion to act on the cells. Liquid exchange was performed using a peristaltic pump during recording. The current detected by each cell in the extracellular fluid without the compound served as its own control group. Each concentration was independently tested twice using at least two cells. All electrophysiological tests were conducted at room temperature.

Compound: CC(C)c1ccccc1-c1ccc2c(c1)C(O)CC21CCN(C(=O)c2cc3cccn3cn2)C1 (centres unmarked) [Example 76, (3-hydroxy-5-(2-isopropylphenyl)-2,3-dihydrospiro[indene-1,3′-pyrrolidine]-1′-yl)(pyrrolo[1,2-c]pyrimidin-3-yl)ketone]
- inhibition at 0.3 µM: 50 to 70%

Compound: CC(C)c1ccccc1-c1ccc2c(c1)C(C(=O)O)CC21CCN(C(=O)c2ccc(F)cn2)C1 (centres unmarked) [Example 129, 1′-(5-fluoropyridoyl)-5-(2-isopropylphenyl)-2,3-dihydrospiro[indene-1,3′-pyrrolidine]-3-carboxylic acid]
- inhibition at 0.3 µM: < 25%

Compound: Cc1ncccc1-c1ccc2c(c1)C(O)CC21CCN(C(=O)c2ccc(F)cn2)C1 (centres unmarked) [Example 91, (5-fluoropyridin-2-yl)(3-hydroxy-5-(2-methylpyridin-3-yl)-2,3-dihydrospiro[indene-1,3′-pyrrolidine]-1′-yl) ketone]
- inhibition at 0.3 µM: < 25%

Compound: COCc1cccc(C(=O)N2CCC3(CC(O)c4cc(-c5ccccc5C5CC5)ccc43)C2)n1 (centres unmarked) [Example 47, (5-(2-cyclopropylphenyl)-3-hydroxy-2,3-dihydrospiro[indene-1,3′-pyrrolidine]-1′-yl)(6-(methoxymethyl)pyridin-2-yl) ketone]
- inhibition at 0.3 µM: < 25%

Compound: CC(C)c1ccccc1-c1ccc2c(c1)[C@@H](O)C[C@]21CCN(C(=O)c2csc(Cl)n2)C1 [Example 36, (2-chlorothiazol-4-yl)((1R,3S)-3-hydroxy-5-(2-isopropylphenyl)-2,3-dihydrospiro[indene-1,3′-pyrrolidine]-1′-yl)ketone]
- inhibition at 0.3 µM: < 25%

Compound: O=C(c1cccc(C2CC2)n1)N1CCC2(CC(O)c3cc(-c4ccccc4C4CC4)ccc32)C1 (centres unmarked) [Example 19, (5-(2-cyclopropylphenyl)-3-hydroxy-2,3-dihydrospiro[indene-1,3′-pyrrolidine]-1′-yl)(6-cyclopropylpyridin-2-yl) ketone]
- inhibition at 0.3 µM: 70 to 100%

Compound: CC(C)c1ccccc1-c1ccc2c(c1)[C@H](O)C[C@@]21CCN(C(=O)c2ccc(F)cn2)C1 [Example 25]
- inhibition at 0.3 µM: 70 to 100%

Compound: CC(C)c1ccccc1-c1ccc2c(c1)C(O)CC21CCN(C(=O)c2ccn3nccc3n2)C1 (centres unmarked) [Example 57, (3-hydroxy-5-(2-isopropylphenyl)-2,3-dihydrospiro[indene-1,3′-pyrrolidine]-1′-yl)(pyrazolo[1,5-a]pyrimidin-5-yl) ketone]
- inhibition at 0.3 µM: 50 to 70%

Compound: O=C(c1ccc(F)cn1)N1CCC2(C[C@H](O)c3cc(-c4ccccc4C4CC4)ccc32)C1 (stereo partly drawn) [Example 46, ((3S)-5-(2-cyclopropylphenyl)-3-hydroxy-2,3-dihydrospiro[indene-1,3′-pyrrolidine]-1′-yl)(5-fluoropyridin-2-yl) ketone]
- inhibition at 0.3 µM: < 25%

Compound: O=C(c1ccc(F)cn1)N1CCC2(C1)OB(O)c1cc(-c3ccccc3C3CC3)ccc12 (centres unmarked) [Example 9, (6-(2-cyclopropylphenyl)-1-hydroxy-1H-spiro[benzo[c][1,2]oxaborolane-3,3′-pyrrolidine]-1′-yl)(5-fluoropyridin-2-yl) ketone]
- inhibition at 0.3 µM: 25 to 50%

Compound: O=C(c1csc(Cl)n1)N1CCC2(CC(O)c3cc(-c4ccccc4C4CC4)ccc32)C1 (centres unmarked) [Example 17, (2-chlorothiazol-4-yl)(5-(2-cyclopropylphenyl)-3-hydroxy-2,3-dihydrospiro[indene-1,3′-pyrrolidine]-1′-yl) ketone]
- inhibition at 0.3 µM: 70 to 100%

Compound: CC(C)(C)c1ccccc1-c1ccc2c(c1)C(O)CC21CCN(C(=O)c2ccc(F)cn2)C1 (centres unmarked) [Example 88, (5-(2-(tert-butyl)phenyl)-3-hydroxy-2,3-dihydrospiro[indene-1,3′-pyrrolidine]-1′-yl)(5-fluoropyridin-2-yl) ketone]
- inhibition at 0.3 µM: 70 to 100%

Compound: CC(C)c1ccccc1-c1ccc2c(c1)C(O)CC21CCN(C(=O)c2ccc(F)cn2)C1 (centres unmarked) [Example 16, (5-fluoropyridin-2-yl)(3-hydroxy-5-(2-isopropylphenyl)-2,3-dihydrospiro[indene-1,3′-pyrrolidine]-1′-yl) ketone]
- inhibition at 0.3 µM: 70 to 100%

Compound: CC(C)c1ccccc1-c1ccc2c(c1)C(O)CC21CCN(C(=O)c2ccccn2)C1 (centres unmarked) [Example 60, (3-hydroxy-5-(2-isopropylphenyl)-2,3-dihydrospiro[indene-1,3′-pyrrolidine]-1′-yl)(pyridin-2-yl)ketone]
- inhibition at 0.3 µM: 70 to 100%

Compound: CC(C)c1ccccc1-c1ccc2c(c1)C(O)CC21CCN(Cc2ccc(F)cn2)C1 (centres unmarked) [Example 134, 1′-((5-fluoropyridin-2-yl)methyl)-5-(2-isopropylphenyl)-2,3-dihydrospiro[indene-1,3′-pyrrolidine]-3-ol]
- inhibition at 0.3 µM: < 25%

Compound: CC(C)c1ccccc1-c1ccc2c(c1)C(O)CC21CCN(C(=O)c2cocn2)C1 (centres unmarked) [Example 70, (3-hydroxy-5-(2-isopropylphenyl)-2,3-dihydrospiro[indene-1,3′-pyrrolidine]-1′-yl)(oxazol-4-yl)ketone]
- inhibition at 0.3 µM: 50 to 70%

Compound: O=C(c1ccc(F)cn1)N1CCC2(CC(O)c3cc(-c4ccccc4)ccc32)C1 (centres unmarked) [Example 84, (5-fluoropyridin-2-yl)(3-hydroxy-5-phenyl-2,3-dihydrospiro[indene-1,3′-pyrrolidine]-1′-yl) ketone]
- inhibition at 0.3 µM: 25 to 50%

Compound: CC(C)c1ccccc1-c1ccc2c(c1)[C@H](O)C[C@@]21CCN(C(=O)c2cccc(C3CC3)n2)C1 [Example 41, (6-cyclopropylpyridin-2-yl)((1S,3R)-3-hydroxy-5-(2-isopropylphenyl)-2,3-dihydrospiro[indene-1,3′-pyrrolidine]-1′-yl)ketone]
- inhibition at 0.3 µM: 70 to 100%

Compound: COc1cnc(C(=O)N2CCC3(CC(O)c4cc(-c5ccccc5C(C)C)ccc43)C2)cn1 (centres unmarked) [Example 63, (3-hydroxy-5-(2-isopropylphenyl)-2,3-dihydrospiro[indene-1,3′-pyrrolidine]-1′-yl)(5-methoxypyrazin-2-yl) ketone]
- inhibition at 0.3 µM: 70 to 100%

Compound: Cc1cccc(C(=O)N2CCC3(CC(O)c4cc(-c5ccccc5C5CC5)ccc43)C2)n1 (centres unmarked) [Example 53, (5-(2-cyclopropylphenyl)-3-hydroxy-2,3-dihydrospiro[indene-1,3′-pyrrolidine]-1′-yl)(6-methylpyridin-2-yl)ketone]
- inhibition at 0.3 µM: 70 to 100%

Compound: CC(C)c1ccccc1-c1ccc2c(c1)C(O)CC21CCN(S(=O)(=O)c2ccc(Cl)cn2)C1 (centres unmarked) [Example 135, 1′-((5-chloropyridin-2-yl)sulfonyl)-5-(2-isopropylphenyl)-2,3-dihydrospiro[indene-1,3′-pyrrolidine]-3-ol]
- inhibition at 0.3 µM: < 25%

Compound: CC(C)c1ccccc1-c1ccc2c(c1)C(O)CC21CCN(C(=O)C2CCN(C)CC2)C1 (centres unmarked) [Example 74, (3-hydroxy-5-(2-isopropylphenyl)-2,3-dihydrospiro[indene-1,3′-pyrrolidine]-1′-yl)(1-methylpiperidin-4-yl) ketone]
- inhibition at 0.3 µM: < 25%

Compound: Cc1cccc(-c2ccc3c(c2)C(O)CC32CCN(C(=O)c3ccc(F)cn3)C2)c1C1CC1 (centres unmarked) [Example 85, (5-(2-cyclopropyl-3-methylphenyl)-3-hydroxy-2,3-dihydrospiro[indene-1,3′-pyrrolidine]-1′-yl)(5-fluoropyridin-2-yl) ketone]
- inhibition at 0.3 µM: 70 to 100%
